Source: ChEMBL document CHEMBL3885881, “DrugMatrix”

Organism: Rattus norvegicus
Assay: DrugMatrix - Regimen: Daily Repeat
Type: toxicity, organism-based, Sprague-Dawley
Parameters: regimen Daily Repeat, gender Male, age 6-8 weeks
Conditions: in vivo, po, route oral GAVAGE, vehicle 100 % WATER; for ABSOLUTE BASOPHIL / ABSOLUTE EOSINOPHIL / ABSOLUTE LYMPHOCYTE / ABSOLUTE MONOCYTE / ABSOLUTE SEGMENTED NEUTROPHIL / BASOPHIL / EOSINOPHIL / ERYTHROCYTE COUNT / HEMATOCRIT / HEMOGLOBIN / LEUKOCYTE COUNT / LYMPHOCYTE / MEAN CORPUSCULAR HEMOGLOBIN / MEAN CORPUSCULAR HEMOGLOBIN CONCENTRATION / MEAN CORPUSCULAR VOLUME / MONOCYTE / NEUTROPHIL / NUCLEATED RED BLOOD CELLS / PLATELET COUNT: tissue Blood; for ALANINE AMINOTRANSFERASE / ALBUMIN / ALKALINE PHOSPHATASE / ASPARTATE AMINOTRANSFERASE / BLOOD UREA NITROGEN / CARBON DIOXIDE / CHLORIDE / CHOLESTEROL / CREATINE PHOSPHOKINASE / CREATININE / GLUCOSE / LACTATE DEHYDROGENASE / LIPASE / PHOSPHORUS / POTASSIUM / SODIUM / TOTAL BILIRUBIN / TOTAL PROTEIN / URIC ACID: tissue Plasma
[1] = 6 mg/kg, 120 h, dose level Low, time 5 day
[2] = 414 mg/kg, 72 h, dose level High, time 3 day
[3] = 414 mg/kg, 120 h, dose level High, time 5 day

CN1CCN(C(=O)OC2c3nccnc3C(=O)N2c2ccc(Cl)cn2)CC1 (centres undefined) [ZOPICLONE]
ABSOLUTE BASOPHIL [1]: 0 CELLS/uL | ABSOLUTE EOSINOPHIL [1]: 89.67 CELLS/uL | ABSOLUTE LYMPHOCYTE [1]: 11847.67 CELLS/uL | ABSOLUTE MONOCYTE [1]: 80.67 CELLS/uL | ABSOLUTE SEGMENTED NEUTROPHIL [1]: 982 CELLS/uL | BASOPHIL [1]: 0% | EOSINOPHIL [1]: 0.67% | ERYTHROCYTE COUNT [1]: 6 x10E6/uL | HEMATOCRIT [1]: 36.37% | HEMOGLOBIN [1]: 14 G/DL | LEUKOCYTE COUNT [1]: 13 x10E3/uL | LYMPHOCYTE [1]: 91% | MEAN CORPUSCULAR HEMOGLOBIN [1]: 23.3 pg | MEAN CORPUSCULAR HEMOGLOBIN CONCENTRATION [1]: 38.5 G/DL | MEAN CORPUSCULAR VOLUME [1]: 60.6 fL | MONOCYTE [1]: 0.67% | NEUTROPHIL [1]: 7.67% | NUCLEATED RED BLOOD CELLS [1]: 0 /100WBC | PLATELET COUNT [1]: 827.33 x10E3/uL | ALANINE AMINOTRANSFERASE [1]: 51.67 u/L | ALBUMIN [1]: 4.07 G/DL | ALKALINE PHOSPHATASE [1]: 386.67 u/L | ASPARTATE AMINOTRANSFERASE [1]: 91.33 u/L | BLOOD UREA NITROGEN [1]: 15 mg/dL | CARBON DIOXIDE [1]: 32 mmol/L | CHLORIDE [1]: 101.67 MEQ/L | CHOLESTEROL [1]: 61.33 mg/dL | CREATINE PHOSPHOKINASE [1]: 428.33 u/L | CREATININE [1]: 0.13 mg/dL | GLUCOSE [1]: 151.33 mg/dL | LACTATE DEHYDROGENASE [1]: 157.67 u/L | LIPASE [1]: 10 u/L | PHOSPHORUS [1]: 12.2 mg/dL | POTASSIUM [1]: 6.32 MEQ/L | SODIUM [1]: 146.2 MEQ/L | TOTAL BILIRUBIN [1]: 0.17 mg/dL | TOTAL PROTEIN [1]: 6.03 G/DL | URIC ACID [1]: 1.17 mg/dL | ABSOLUTE BASOPHIL [2]: 0 CELLS/uL | ABSOLUTE EOSINOPHIL [2]: 54 CELLS/uL | ABSOLUTE LYMPHOCYTE [2]: 11865 CELLS/uL | ABSOLUTE MONOCYTE [2]: 279 CELLS/uL | ABSOLUTE SEGMENTED NEUTROPHIL [2]: 4168.67 CELLS/uL | BASOPHIL [2]: 0% | EOSINOPHIL [2]: 0.33% | ERYTHROCYTE COUNT [2]: 5.87 x10E6/uL | HEMATOCRIT [2]: 36.97% | HEMOGLOBIN [2]: 14.13 G/DL | LEUKOCYTE COUNT [2]: 16.37 x10E3/uL | LYMPHOCYTE [2]: 72.33% | MEAN CORPUSCULAR HEMOGLOBIN [2]: 24.1 pg | MEAN CORPUSCULAR HEMOGLOBIN CONCENTRATION [2]: 38.23 G/DL | MEAN CORPUSCULAR VOLUME [2]: 63.03 fL | MONOCYTE [2]: 1.67% | NEUTROPHIL [2]: 25.67% | NUCLEATED RED BLOOD CELLS [2]: 0 /100WBC | PLATELET COUNT [2]: 1420.33 x10E3/uL | ALANINE AMINOTRANSFERASE [2]: 76 u/L | ALBUMIN [2]: 3.9 G/DL | ALKALINE PHOSPHATASE [2]: 416.33 u/L | ASPARTATE AMINOTRANSFERASE [2]: 81 u/L | BLOOD UREA NITROGEN [2]: 15.67 mg/dL | CARBON DIOXIDE [2]: 31.67 mmol/L | CHLORIDE [2]: 101.33 MEQ/L | CHOLESTEROL [2]: 79 mg/dL | CREATINE PHOSPHOKINASE [2]: 490.67 u/L | CREATININE [2]: 0.17 mg/dL | GLUCOSE [2]: 142.33 mg/dL | LACTATE DEHYDROGENASE [2]: 208 u/L | LIPASE [2]: 10.67 u/L | PHOSPHORUS [2]: 9.37 mg/dL | POTASSIUM [2]: 5.75 MEQ/L | SODIUM [2]: 145.07 MEQ/L | TOTAL BILIRUBIN [2]: 0.13 mg/dL | TOTAL PROTEIN [2]: 5.97 G/DL | URIC ACID [2]: 0.43 mg/dL | ABSOLUTE BASOPHIL [3]: 0 CELLS/uL | ABSOLUTE EOSINOPHIL [3]: 34 CELLS/uL | ABSOLUTE LYMPHOCYTE [3]: 13648.67 CELLS/uL | ABSOLUTE MONOCYTE [3]: 500 CELLS/uL | ABSOLUTE SEGMENTED NEUTROPHIL [3]: 2484 CELLS/uL | BASOPHIL [3]: 0% | EOSINOPHIL [3]: 0.33% | ERYTHROCYTE COUNT [3]: 6.38 x10E6/uL | HEMATOCRIT [3]: 38.3% | HEMOGLOBIN [3]: 14.7 G/DL | LEUKOCYTE COUNT [3]: 16.67 x10E3/uL | LYMPHOCYTE [3]: 81% | MEAN CORPUSCULAR HEMOGLOBIN [3]: 23.07 pg | MEAN CORPUSCULAR HEMOGLOBIN CONCENTRATION [3]: 38.37 G/DL | MEAN CORPUSCULAR VOLUME [3]: 60.13 fL | MONOCYTE [3]: 3% | NEUTROPHIL [3]: 15.67% | NUCLEATED RED BLOOD CELLS [3]: 0 /100WBC | PLATELET COUNT [3]: 1154.67 x10E3/uL | ALANINE AMINOTRANSFERASE [3]: 76.67 u/L | ALBUMIN [3]: 3.57 G/DL | ALKALINE PHOSPHATASE [3]: 365 u/L | ASPARTATE AMINOTRANSFERASE [3]: 80.33 u/L | BLOOD UREA NITROGEN [3]: 15.33 mg/dL | CARBON DIOXIDE [3]: 30.33 mmol/L | CHLORIDE [3]: 102 MEQ/L | CHOLESTEROL [3]: 68 mg/dL | CREATINE PHOSPHOKINASE [3]: 261.33 u/L | CREATININE [3]: 0.22 mg/dL | GLUCOSE [3]: 118.67 mg/dL | LACTATE DEHYDROGENASE [3]: 110.33 u/L | LIPASE [3]: 11 u/L | PHOSPHORUS [3]: 11.23 mg/dL | POTASSIUM [3]: 6.36 MEQ/L | SODIUM [3]: 146.63 MEQ/L | TOTAL BILIRUBIN [3]: 0.1 mg/dL | TOTAL PROTEIN [3]: 5.73 G/DL | URIC ACID [3]: 1.53 mg/dL
